Data from patent publication US20220226323A1, “ALDOSE REDUCTASE INHIBITORS FOR TREATMENT OF PHOSPHOMANNOMUTASE 2 DEFICIENCY” (Applied Therapeutics, Inc., priority 2019, published 2022).

Assays:
[1] = CNS penetration (statement)
[2] = test system: PMM2; test: PMM2 enzyme activity in PMM2-CDG patient-derived fibroblasts; type: cell-based, human; details: 50 nM, 24 hours; four PMM2-CDG patient-derived fibroblast lines; vs DMSO-treated mutant cell line
Protocol: Cells were seeded in a 96-well plate, homogenization buffer (20 mM HEPES, 25 mM KCl, 1 mM DTT, 10 μg/ml leupeptin, 10 μg/ml antipain) was added and plates were freeze-thawed at —80° C. twice to lyse cells. Reaction buffer (50 mM HEPES, 5 mM MgCl2, 0.5 mM NADP+, 10 μg/ml yeast glucose-6-phosphate dehydrogenase, 10 μM glucose-1,6-bisphosphate, 10 μg/ml phosphoglucoisomerase, 5.25 μg/ml phosphomannoseisomerase) containing 200 μM mannose-1-phosphate as substrate was then added to the wells of each plate. Plates were incubated at 37° C. for 270 min and absorbance was read at 340 nm at 30, 60, 90, 120, 150, 180, 210, 240 and 270 min by removing the plate from incubation at the respective time points. All incubations were carried out with or without substrate (mannose-1-phosphate) and the difference between the two values was calculated as the enzymatic activity. Enzyme activity was normalized to total lysate protein levels. Enzyme activities of fibroblasts in the absence of an AR inhibitor were determined. […] Following this, enzyme activity was assessed as described above. […] For ease of analysis, the enzyme activity (as represented by NADPH concentration) of each treatment condition was compared with the activity of a baseline, untreated mutant cell line at the last time point.

## O=C(O)Cc1nn(Cc2nc3cc(C(F)(F)F)ccc3s2)c(=O)c2cscc12 [Compound B]
[1]
  CNS penetration: CNS penetrant
[2]
  PMM2 enzyme activity in patient-derived fibroblast cell lines: increased PMM2 enzyme activity in each of the four patient-derived cell lines tested
